Test results published in PubChem BioAssay (NCI).
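Growth conditions: 96-well plates. Treatment: test compound, 48 hours, 5 concentrations. Analysis: linear interpolation between bracketing concentrations; unreached endpoints set to highest concentration. TGI: total growth inhibition.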

Legend:
Experiment in all cases: NCI tumour cell line growth inhibition, 48 h
HT29 colon = system: HT29 colon
OVCAR-8 ovarian = system: OVCAR-8 ovarian
UACC-257 melanoma = system: UACC-257 melanoma
SF-295 CNS = system: SF-295 CNS
MOLT-4 leukemia = system: MOLT-4 leukemia
SF-539 CNS = system: SF-539 CNS
COLO 205 colon = system: COLO 205 colon
MALME-3M melanoma = system: MALME-3M melanoma
SK-MEL-2 melanoma = system: SK-MEL-2 melanoma
RPMI-8226 leukemia = system: RPMI-8226 leukemia
MDA-N = system: MDA-N
SW-620 colon = system: SW-620 colon
HOP-62 NSCLC = system: HOP-62 NSCLC
MDA-MB-435 = system: MDA-MB-435
T-47D breast = system: T-47D breast
SNB-75 CNS = system: SNB-75 CNS
A549 NSCLC = system: A549 NSCLC
NCI/ADR-RES ovarian = system: NCI/ADR-RES ovarian
K-562 leukemia = system: K-562 leukemia
HS 578T breast = system: HS 578T breast
U251 CNS = system: U251 CNS
IGROV1 ovarian = system: IGROV1 ovarian
ACHN renal = system: ACHN renal
LOX IMVI melanoma = system: LOX IMVI melanoma
RXF 393 renal = system: RXF 393 renal
HOP-92 NSCLC = system: HOP-92 NSCLC
EKVX NSCLC = system: EKVX NSCLC
HCT-116 colon = system: HCT-116 colon
786-0 renal = system: 786-0 renal
UO-31 renal = system: UO-31 renal
KM12 colon = system: KM12 colon
M14 melanoma = system: M14 melanoma
MDA-MB-231 breast = system: MDA-MB-231 breast
PC-3 prostate = system: PC-3 prostate
TK-10 renal = system: TK-10 renal
SK-OV-3 ovarian = system: SK-OV-3 ovarian
HCC-2998 colon = system: HCC-2998 colon
OVCAR-5 ovarian = system: OVCAR-5 ovarian
BT-549 breast = system: BT-549 breast
NCI-H23 lung = system: NCI-H23 lung
CAKI-1 renal = system: CAKI-1 renal
MCF7 breast = system: MCF7 breast
HL-60(TB) leukemia = system: HL-60(TB) leukemia
OVCAR-3 ovarian = system: OVCAR-3 ovarian
CCRF-CEM leukemia = system: CCRF-CEM leukemia
HCT-15 colon = system: HCT-15 colon
DU-145 prostate = system: DU-145 prostate
UACC-62 melanoma = system: UACC-62 melanoma
NCI-H522 lung = system: NCI-H522 lung
SNB-19 CNS = system: SNB-19 CNS
SR leukemia = system: SR leukemia
SF-268 CNS = system: SF-268 CNS
SK-MEL-5 melanoma = system: SK-MEL-5 melanoma
SN12C renal = system: SN12C renal
NCI-H226 lung = system: NCI-H226 lung
NCI-H460 lung = system: NCI-H460 lung
SK-MEL-28 melanoma = system: SK-MEL-28 melanoma
A498 renal = system: A498 renal
OVCAR-4 ovarian = system: OVCAR-4 ovarian

Work on `C[C@]12CC[C@@H]3c4cc(OCC(F)(F)F)c(O)cc4CC[C@H]3[C@@H]1CC[C@@H]2O` yielded a TGI (HT29 colon) of 15.3 µM, a TGI (OVCAR-8 ovarian) of 34.3 µM and a TGI (UACC-257 melanoma) of 21.4 µM. The TGI (SF-295 CNS) was 11.6 µM, the TGI (MOLT-4 leukemia) was 18.9 µM and the TGI (SF-539 CNS) was 7.27 µM. The TGI (COLO 205 colon) was 28.2 µM, the TGI (MALME-3M melanoma) was 19 µM and the TGI (SK-MEL-2 melanoma) was 18.5 µM. For the same molecule, the TGI (RPMI-8226 leukemia) was 23.1 µM, the TGI (MDA-N) was 1.29 µM and the TGI (SW-620 colon) was 9.03 µM. The TGI (HOP-62 NSCLC) was 26.7 µM, the TGI (MDA-MB-435) was 1.1 µM and the TGI (T-47D breast) was 49.5 µM. The TGI (SNB-75 CNS) was 13.2 µM, the TGI (A549 NSCLC) was 20.6 µM and the TGI (NCI/ADR-RES ovarian) was 36.8 µM. It also gave a TGI (K-562 leukemia) of 13.5 µM, a TGI (HS 578T breast) of 23 µM and a TGI (U251 CNS) of 18.3 µM. The TGI (IGROV1 ovarian) was 23.8 µM, the TGI (ACHN renal) was 47.1 µM and the TGI (LOX IMVI melanoma) was 17.1 µM. It also gave a TGI (RXF 393 renal) of 8.68 µM, a TGI (HOP-92 NSCLC) of 21.8 µM and a TGI (EKVX NSCLC) of 30.7 µM. The TGI (HCT-116 colon) was 16.7 µM, the TGI (786-0 renal) was 18.1 µM and the TGI (UO-31 renal) was 22.3 µM. It also gave a TGI (KM12 colon) of 12.7 µM, a TGI (M14 melanoma) of 16.8 µM and a TGI (MDA-MB-231 breast) of 3.11 µM. The TGI (PC-3 prostate) was 13.8 µM, the TGI (TK-10 renal) was 40.4 µM and the TGI (SK-OV-3 ovarian) was 16.8 µM. The TGI (HCC-2998 colon) was 16.9 µM, the TGI (OVCAR-5 ovarian) was 37.7 µM and the TGI (BT-549 breast) was 89.6 µM. It also gave a TGI (NCI-H23 lung) of 19.3 µM, a TGI (CAKI-1 renal) of 29.9 µM and a TGI (MCF7 breast) of 17.3 µM. The TGI (HL-60(TB) leukemia) was 10.7 µM, the TGI (OVCAR-3 ovarian) was 12.9 µM and the TGI (CCRF-CEM leukemia) was 15.2 µM. For the same molecule, the TGI (HCT-15 colon) was 15.2 µM, the TGI (DU-145 prostate) was 29.4 µM and the TGI (UACC-62 melanoma) was 17.3 µM. The TGI (NCI-H522 lung) was 3.88 µM, the TGI (SNB-19 CNS) was 18.1 µM and the TGI (SR leukemia) was 2.47 µM. For the same molecule, the TGI (SF-268 CNS) was 35.2 µM, the TGI (SK-MEL-5 melanoma) was 15.4 µM and the TGI (SN12C renal) was 15.5 µM. For the same molecule, the TGI (NCI-H226 lung) was 24.7 µM, the TGI (NCI-H460 lung) was 15.5 µM and the TGI (SK-MEL-28 melanoma) was 26.2 µM. For the same molecule, the TGI (A498 renal) was 20.7 µM and the TGI (OVCAR-4 ovarian) was over 53.1 µM.
`O=[N+]([O-])c1nccn1CCCNc1ccnc2cc(Cl)ccc12` was tested, and the TGI (HT29 colon) was 99.6 µM, the TGI (OVCAR-8 ovarian) was over 100 µM and the TGI (UACC-257 melanoma) was over 9.02 µM. For the same molecule, the TGI (SF-295 CNS) was over 100 µM, the TGI (MOLT-4 leukemia) was over 100 µM and the TGI (SF-539 CNS) was over 88.7 µM. It also gave a TGI (COLO 205 colon) of over 100 µM, a TGI (MALME-3M melanoma) of over 57.3 µM and a TGI (SK-MEL-2 melanoma) of over 95.7 µM. It also gave a TGI (RPMI-8226 leukemia) of over 100 µM, a TGI (MDA-N) of over 100 µM and a TGI (SW-620 colon) of over 100 µM. For the same molecule, the TGI (HOP-62 NSCLC) was over 92.4 µM, the TGI (MDA-MB-435) was over 100 µM and the TGI (T-47D breast) was over 89.9 µM. For the same molecule, the TGI (SNB-75 CNS) was over 100 µM, the TGI (A549 NSCLC) was over 100 µM and the TGI (NCI/ADR-RES ovarian) was over 100 µM. It also gave a TGI (K-562 leukemia) of over 100 µM, a TGI (HS 578T breast) of over 100 µM and a TGI (U251 CNS) of over 100 µM. For the same molecule, the TGI (IGROV1 ovarian) was over 100 µM, the TGI (ACHN renal) was over 17.8 µM and the TGI (LOX IMVI melanoma) was over 100 µM. It also gave a TGI (RXF 393 renal) of over 23 µM, a TGI (HOP-92 NSCLC) of over 21 µM and a TGI (EKVX NSCLC) of over 100 µM. The TGI (HCT-116 colon) was over 100 µM, the TGI (786-0 renal) was over 100 µM and the TGI (UO-31 renal) was over 88.4 µM. It also gave a TGI (KM12 colon) of over 26.6 µM, a TGI (M14 melanoma) of over 100 µM and a TGI (MDA-MB-231 breast) of over 100 µM. It also gave a TGI (PC-3 prostate) of over 100 µM, a TGI (TK-10 renal) of over 11.7 µM and a TGI (SK-OV-3 ovarian) of over 100 µM. The TGI (HCC-2998 colon) was 55.3 µM, the TGI (OVCAR-5 ovarian) was over 100 µM and the TGI (BT-549 breast) was over 100 µM. The TGI (NCI-H23 lung) was over 100 µM, the TGI (CAKI-1 renal) was over 7.83 µM and the TGI (MCF7 breast) was over 100 µM. The TGI (HL-60(TB) leukemia) was over 100 µM, the TGI (OVCAR-3 ovarian) was over 100 µM and the TGI (CCRF-CEM leukemia) was over 100 µM. The TGI (HCT-15 colon) was over 100 µM, the TGI (DU-145 prostate) was over 100 µM and the TGI (UACC-62 melanoma) was over 8.46 µM. For the same molecule, the TGI (NCI-H522 lung) was 6.71 µM, the TGI (SNB-19 CNS) was over 64.2 µM and the TGI (SR leukemia) was over 75.3 µM. The TGI (SF-268 CNS) was over 65.6 µM, the TGI (SK-MEL-5 melanoma) was 10.9 µM and the TGI (SN12C renal) was over 85.1 µM. The TGI (NCI-H226 lung) was 10.8 µM, the TGI (NCI-H460 lung) was over 12 µM and the TGI (SK-MEL-28 melanoma) was over 100 µM. For the same molecule, the TGI (A498 renal) was over 70.9 µM and the TGI (OVCAR-4 ovarian) was over 100 µM.
